Consider 13 compounds from patent US20180243317A1, “COMPOSITIONS COMPRISING A PI3K INHIBITOR AND AN HDAC INHIBITOR” (KARUS THERAPEUTICS LTD, priority 2015, published 2018).

Read-outs that look alike come from different tables or passages of the source.

Data set [1] can be described thus: Rodent pharmacokinetics: oral bioavailability and clearance in male mice. Conditions: in vivo. The arrangement: species or system mouse. The protocol:
Formulation: 10% DMSO, 90% Saline
Dosing: 10 mg/kg P.O. and 5 mg/kg I.V.
Animals in Group 1 were administered intravenously with Example B solution formulation in 20% Propylene Glycol, 50% of PEG 400 and 30% of (20% HPβCD in water) via tail vein at a dose of 3 mg/kg.
Animals in Group 2 were administered with oral solution formulation of Example B in 20% Propylene Glycol, 50% of PEG 400 and 30% of (20% HPβCD in water) at a dose of 10 mg/kg;
Dosing: 10 mg/kg P.O. and 3 mg/kg I.V.
Animals in Group 1 were administered intravenously with Example G solution formulation in 5% NMP, 5% solutol HS-15 in 90% HPβCD solution (20% HPβCD in RO water) at 3 mg/kg dose.
Animals in Group 2 were administered orally with 10 mg/kg solution formulation of Example G in 5% NMP, 5% solutol HS-15 in 90% HPβCD solution (20% HPβCD in RO water)

In data set [2] the test system is panel of 94 cancer cell lines. Description: Potentiation study #2015030003, SRB proliferation assay. The class given is cell-based. Conditions: 72 h. The procedure:
(§1) 48 hours later, cells were treated with 10μL media containing compound at 20× final concentration (resulting in a final DMSO concentration of 0.1%). […] In addition, control plates with cells not exposed to compound were analyzed after 48 hours (time zero, Tz). […] Briefly—after compound treatment, media was aspirated and cells were fixed by addition of 10% TCA.
(§2) Average background optical density (derived from plates and wells containing medium without cells) was subtracted from the optical density values from all controls and treated cells.

Data set [3] concerns MINO cells (mantle cell lymphoma). Description: SRB proliferation assay (potentiation and concentration matrix studies). Conditions: in the presence of 100 nM Compound A, GI50 shift, z-score and/or HSA analysis. The class given is cell-based, human. The protocol: (§3) Cell lines marked with ‡ were also tested in study #2015030004.
as §1, §2
On the technique in general: The SRB assay estimates cell density from bound dye.

Data set [4] deals with PC-3 cells (prostate adenocarcinoma). The data set is described as above. The class given is cell-based, human. Conditions: PC-3, in the presence of 100 nM Compound A; GI50 shift, z-score and/or HSA analysis. The protocol: as §3, §1, §2
Data set [5] has as its system LoVo cells (colorectal adenocarcinoma). Description: SRB proliferation assay (potentiation study). The settings on record: in the presence of 100 nM Compound A, GI50 shift, z-score and/or HSA analysis. It counts as cell-based, human. The procedure: as §1, §2
The target of a further data set is T1, Human HDAC1 (Homo sapiens, UniProt Q13547).
T1 construct: full length with C-terminal His-tag and C-terminal FLAG-tag; His-tag (C); FLAG-tag (C); made in house; host or cells: baculovirus expression system
T1 sequence (Q13547 whole entry): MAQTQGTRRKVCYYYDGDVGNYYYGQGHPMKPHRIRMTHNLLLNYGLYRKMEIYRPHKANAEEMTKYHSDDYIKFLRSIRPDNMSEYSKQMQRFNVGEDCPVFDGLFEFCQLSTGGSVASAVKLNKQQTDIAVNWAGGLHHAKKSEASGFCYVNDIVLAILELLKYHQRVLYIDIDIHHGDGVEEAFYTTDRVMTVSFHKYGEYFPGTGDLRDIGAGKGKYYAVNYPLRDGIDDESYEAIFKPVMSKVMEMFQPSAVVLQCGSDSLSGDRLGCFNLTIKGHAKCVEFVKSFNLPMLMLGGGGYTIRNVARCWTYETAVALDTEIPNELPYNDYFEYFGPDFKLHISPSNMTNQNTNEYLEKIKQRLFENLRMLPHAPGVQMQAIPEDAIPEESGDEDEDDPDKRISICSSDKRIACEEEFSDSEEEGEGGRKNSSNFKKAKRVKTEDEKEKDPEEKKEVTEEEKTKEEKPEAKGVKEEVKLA
Description: HDAC biochemical assay with acetylated AMC-labeled peptide substrate. Conditions: read-out: IC50 HDAC 1. The procedure: (§4) Activity against all zinc-dependent HDACs 1 to 11 was assessed by using an acetylated AMC-labeled peptide substrate. The substrate RHKKAc was used for all class I and IIb HDACs; for HDAC8, the substrate used was RHKAcKAc. […] All assays were based on the AMC-labeled substrate and developer combination.
(§5) The protocol involved a two-step reaction: first, the substrate with the acetylated lysine side chain is incubated with a sample containing HDAC activity, to produce the deacetylated products, which are then digested in the second step by the addition of developer to produce the fluorescent signal proportional to the amount of deacetylated substrates.
Human HDAC1 (GenBank Accession No. NM_004964), full length with C-terminal His-tag and C-terminal FLAG-tag, MW=56 kDa, expressed in baculovirus expression system.
(§6) Before use, 1 mg/mL BSA and DMSO are added.
(§7) Incubate for 2 hours at 30° C.
(§8) Fluorescence background signal is then subtracted from compound data signal.
(§9) Stage 1: Deacetylation of substrate by incubation of HDAC enzymes with compounds
(§10) Stage 2: Development by addition of Developer to digest the deacetylated substrate, and generate the fluorescent color; Detection: 360/460 Ex/Em

A further data set deals with T2, Recombinant human HDAC6 (Homo sapiens, UniProt Q9UBN7).
T2 construct: GST (N); made in house; host or cells: Sf9 insect cells (baculovirus)
T2 sequence (Q9UBN7 1-1215): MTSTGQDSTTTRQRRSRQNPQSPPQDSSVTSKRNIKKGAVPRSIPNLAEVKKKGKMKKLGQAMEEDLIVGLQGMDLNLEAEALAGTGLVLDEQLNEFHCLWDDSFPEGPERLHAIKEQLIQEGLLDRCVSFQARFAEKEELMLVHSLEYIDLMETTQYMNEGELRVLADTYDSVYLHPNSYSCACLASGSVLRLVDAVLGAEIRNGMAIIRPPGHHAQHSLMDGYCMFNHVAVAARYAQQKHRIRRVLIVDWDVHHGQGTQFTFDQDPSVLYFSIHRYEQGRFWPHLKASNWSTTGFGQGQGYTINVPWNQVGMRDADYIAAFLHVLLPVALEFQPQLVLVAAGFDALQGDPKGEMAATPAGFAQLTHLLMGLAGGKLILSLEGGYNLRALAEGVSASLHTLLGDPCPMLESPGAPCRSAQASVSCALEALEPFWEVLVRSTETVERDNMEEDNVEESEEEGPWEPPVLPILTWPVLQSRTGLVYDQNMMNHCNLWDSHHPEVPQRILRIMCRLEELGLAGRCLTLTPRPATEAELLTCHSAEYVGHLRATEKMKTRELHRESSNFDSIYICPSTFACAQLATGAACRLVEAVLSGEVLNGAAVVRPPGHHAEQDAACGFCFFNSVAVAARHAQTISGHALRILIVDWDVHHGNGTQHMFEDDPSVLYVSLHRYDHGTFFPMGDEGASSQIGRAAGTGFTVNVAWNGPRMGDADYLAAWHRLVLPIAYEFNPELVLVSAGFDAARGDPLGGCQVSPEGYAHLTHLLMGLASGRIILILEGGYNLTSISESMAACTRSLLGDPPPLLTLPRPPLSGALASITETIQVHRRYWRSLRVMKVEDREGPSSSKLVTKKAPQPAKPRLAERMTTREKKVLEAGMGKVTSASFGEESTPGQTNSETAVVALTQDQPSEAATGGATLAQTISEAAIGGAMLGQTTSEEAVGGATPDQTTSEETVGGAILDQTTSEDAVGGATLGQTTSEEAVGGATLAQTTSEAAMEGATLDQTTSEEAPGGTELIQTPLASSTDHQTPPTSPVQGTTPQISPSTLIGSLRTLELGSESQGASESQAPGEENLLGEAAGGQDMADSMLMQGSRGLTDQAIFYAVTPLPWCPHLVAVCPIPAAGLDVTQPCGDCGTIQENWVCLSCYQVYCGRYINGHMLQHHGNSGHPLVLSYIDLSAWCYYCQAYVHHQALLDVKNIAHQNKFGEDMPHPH
The description is as above. The settings on record: read-out: IC50 HDAC 6. The protocol:
as §4, §5
Human HDAC5 (GenBank Accession No. NM_005474), full length with N-terminal GST tag, MW=150 kDa, expressed in baculovirus expression system. Recombinant human HDAC6 (GenBank Accession No. BC069243), full length, MW=180 kDa, was expressed by baculovirus in Sf9 insect cells using an N-terminal GST tag.
as §6, §7, §8, §9, §10

In turn, `c1cc(-c2nc(N3CCOCC3)c3oc4ncc(CN5C[C@@H]6C[C@H]5CO6)cc4c3n2)c2cc[nH]c2c1` [A] yielded a F in data set [1] (male, CD1, mouse) of 73.77%. Besides, the clearance was 21.12 mL/min/kg in data set [1] (male, CD1, mouse, iv, 5 mg/kg) and 21 mL/min/kg in data set [1] (male, mouse, iv). The “Oral Bioavailability (F)” value in data set [1] (male, mouse, po, 10 mg/kg) is recorded as 74.

On to `c1cc(-c2nc(N3CCOCC3)c3oc4ncc(CN5CCC6(CC5)COC6)cc4c3n2)c2cc[nH]c2c1` [B], for which the F in data set [1] (mouse) came out at 74%. In data set [1] (mouse, iv, 3 mg/kg), this compound had an AUC(0-t) of 1510 ng·h/mL, an AUCinf of 1512.20 ng·h/mL, a Cmax of 621.42 ng/mL and a Vss of 5.51 L/kg. In data set [1] (mouse, iv, 3 mg/kg), this compound came in with a clearance of 33.06 mL/min/kg and a t1/2 of 1.23 h. Further, in data set [1] (mouse, po, 10 mg/kg), the AUC(0-t) was determined as 3730 ng·h/mL and the AUCinf is 4103.86 ng·h/mL.

For the compound `O=C(NO)c1ccc(CN(c2cnccn2)c2cnccn2)cc1` [Example GG, 4-{[Bis(pyrazin-2-yl)amino]methyl}-N-hydroxybenzamide], the concentration for 50% growth inhibition (GI50) in data set [2] (Compound GG alone, read-out: GI50 values for the individual cell lines (range)) is 4.7 to 33 µM; in data set [2] (Compound GG alone, read-out: mean (±s.e.m) GI50 value across the whole panel), 17.3 µM; in data set [2] (Compound GG in the presence of 100 nM Compound A, read-out: GI50 values for the individual cell lines (range)), 1.7 to 35 µM; in data set [2] (Compound GG in the presence of 100 nM Compound A, read-out: mean (±s.e.m) GI50 value across the whole panel), 14.1 µM. Moreover, the “potentiation of the pharmacological activity of Compound GG by Compound A” value in data set [3], in data set [4] and in data set [5] was “potentiate” throughout.

With `c1cc(-c2nc(N3CCOCC3)c3oc4ncc(CN5CCCCC5)cc4c3n2)c2cc[nH]c2c1` [Example I in WO2011/021038, reference compound], the “Oral Bioavailability (F)” value in data set [1] (male, mouse, po, 10 mg/kg) is reported as 28.

`Cc1nsc(N(Cc2ccc(C(=O)NO)cc2)c2ccc(F)cn2)n1` [Example R, 4-(((5-Fluoropyridin-2-yl)(3-methyl-1,2,4-thiadiazol-5-yl)amino)methyl)-N-hydroxybenzamide]: the figures for the half-maximal inhibitory concentration (IC50) at Human HDAC1 and at Recombinant human HDAC6 were above 10 µM and at most 0.5 µM, respectively.

Consider `Cc1nsc(N(Cc2ccc(C(=O)NO)cc2)c2cc(-c3ccc(F)cc3)ccn2)n1` [Example S, 4-(((4-(4-Fluorophenyl)pyridin-2-yl)(3-methyl-1,2,4-thiadiazol-5-yl)amino)methyl)-N-hydroxybenzamide], for which the figures for the IC50 on Human HDAC1 and on Recombinant human HDAC6 were above 10 µM and 1 to 10 µM, respectively.

In the case of `O=C(NO)c1ccc(CN(c2ccc(F)cn2)c2nc(C(F)(F)F)ns2)cc1` [Example T, 4-(((5-Fluoropyridin-2-yl)(3-(trifluoromethyl)-1,2,4-thiadiazol-5-yl)amino)methyl)-N-hydroxybenzamide], the results for the IC50 on Human HDAC1 and at Recombinant human HDAC6 were above 10 µM and 1 to 10 µM, respectively.

As to `O=C(NO)c1ccc(CN(c2cnccn2)c2cc(-c3ccc(F)cc3)ccn2)cc1` [Example U, 4-(((4-(4-Fluorophenyl)pyridin-2-yl)(pyrazin-2-yl)amino)methyl)-N-hydroxybenzamide], the 50% inhibitory concentration (IC50) on Human HDAC1 was 1 to 10 µM; at Recombinant human HDAC6, at most 0.5 µM.

In the case of `O=C(NO)c1ccc(CN(c2ccccn2)c2nc(C(F)(F)F)ns2)cc1` [Example W, N-Hydroxy-4-((pyridin-2-yl(3-(trifluoromethyl)-1,2,4-thiadiazol-5-yl)amino)methyl)benzamide], the concentration for half-maximal inhibition (IC50) at Human HDAC1 is above 10 µM; at Recombinant human HDAC6, at most 0.5 µM.

Turning to `COc1cccnc1N(Cc1ccc(C(=O)NO)cc1)c1ccc(C)cn1` [Example X, N-Hydroxy-4-(((3-methoxypyridin-2-yl)-(5-methylpyridin-2-yl)amino)methyl)benzamide], the IC50 at Human HDAC1 was above 10 µM; on Recombinant human HDAC6, at most 0.5 µM.

For the compound `COc1ccc(N(Cc2ccc(C(=O)NO)cc2)c2ccc(C)cn2)nc1` [Example Y, N-Hydroxy-4-(((5-methoxypyridin-2-yl)(5-methylpyridin-2-yl)amino)methyl)benzamide], the IC50 on Human HDAC1 was above 10 µM; at Recombinant human HDAC6, at most 0.5 µM.

As to `COc1cccnc1N(Cc1ccc(C(=O)NO)cc1)c1ccc(N2CCOCC2)cn1` [Example Z, N-Hydroxy-4-(((3-methoxypyridin-2-yl)(5-morpholinopyridin-2-yl)amino)methyl)benzamide], the 50% inhibitory concentration (IC50) on Human HDAC1 was above 10 µM; on Recombinant human HDAC6, at most 0.5 µM.

As to `c1cc(-c2nc(N3CCOCC3)c3oc4ncc(CN5CCC56COC6)cc4c3n2)c2cc[nH]c2c1` [G], in data set [1] (male, Balb/c, mouse), the F was 30%. In addition, in data set [1] (male, mouse, summary table, mice, IV, read-out: Clearance), the clearance worked out at 26 mL/min/kg.

A word on the AUC(0-t): it is the area under the concentration-time curve up to a stated or last time point. A word on the Cmax: it is the highest concentration seen after dosing. The term GI50 denotes the concentration at which growth is held to half of that of the control. Broadly, the IC50 is the concentration at which inhibition is half-maximal.
